Measured values published in US20090105270A1, “Kinase inhibition and anticancer therapy” (priority 2007, published 2009).

How the values were obtained:
SAPK4(h) = SAPK4(h) (Homo sapiens, UniProt O15264); assay: Upstate kinase activity inhibition assay SAPK4(h); conditions: 40 min, read-out: percentage of enzyme activity that remains
ALK(h) = target: T1, ALK(h) (Homo sapiens, UniProt Q9UM73); assay: Upstate kinase activity inhibition assay ALK(h); assay type: biochemical; conditions: 40 min; read-out: percentage of enzyme activity that remains
T1 construct: purchased Upstate (KinaseProfiler service)

TSSK1(h) = TSSK1(h) (Homo sapiens, UniProt Q9BXA7); assay: Upstate kinase activity inhibition assay TSSK1(h); conditions: 40 min, read-out: percentage of enzyme activity that remains
PKCβII(h) = target: T2, PKCβII(h) (Homo sapiens, UniProt P05771); assay: Upstate kinase activity inhibition assay PKCβII(h); assay type: biochemical; conditions: 40 min; read-out: percentage of enzyme activity that remains
T2 construct: purchased Upstate (KinaseProfiler service)

IKKβ(h) = IKKβ(h) (Homo sapiens, UniProt O14920); assay: Upstate kinase activity inhibition assay IKKβ(h); conditions: 40 min, read-out: percentage of enzyme activity that remains
ZIPK(h) = ZIPK(h) (Homo sapiens, UniProt O43293); assay: Upstate kinase activity inhibition assay ZIPK(h); conditions: 40 min, read-out: percentage of enzyme activity that remains
BTK(h) = target: T3, BTK(h) (Homo sapiens, UniProt Q06187); assay: Upstate kinase activity inhibition assay BTK(h); assay type: biochemical
T3 construct: purchased Upstate (KinaseProfiler service)

PKBα(h) = target: T4, PKBα(h) (Homo sapiens, UniProt P31749); assay: Upstate kinase activity inhibition assay PKBα(h); assay type: biochemical; conditions: 40 min; read-out: percentage of enzyme activity that remains
T4 construct: purchased Upstate (KinaseProfiler service)

TrkA(h) = TrkA(h) (Homo sapiens, UniProt P04629); assay: Upstate kinase activity inhibition assay TrkA(h); conditions: 40 min, read-out: percentage of enzyme activity that remains
PKCη(h) = target: T5, PKCη(h) (Homo sapiens, UniProt P24723); assay: Upstate kinase activity inhibition assay PKCη(h); assay type: biochemical; conditions: 40 min; read-out: percentage of enzyme activity that remains
T5 construct: purchased Upstate (KinaseProfiler service)

PAK6(h) = PAK6(h) (Homo sapiens, UniProt Q9NQU5); assay: Upstate kinase activity inhibition assay PAK6(h); conditions: 40 min, read-out: percentage of enzyme activity that remains
LOK(h) = LOK(h) (Homo sapiens, UniProt O94804); assay: Upstate kinase activity inhibition assay LOK(h)
MEK1(h) = MEK1(h) (Homo sapiens, UniProt Q02750); assay: Upstate kinase activity inhibition assay MEK1(h); conditions: 40 min, read-out: percentage of enzyme activity that remains
CDK2/cyclinE(h) = target: T6, CDK2/cyclinE(h) (Homo sapiens, UniProt P24941); assay: Upstate kinase activity inhibition assay CDK2/cyclinE(h); assay type: biochemical; conditions: 4 μM Compound E
T6 construct: purchased Upstate (KinaseProfiler service)

PKA(h) = PKA(h) (Homo sapiens, UniProt P17612); assay: Upstate kinase activity inhibition assay PKA(h); assay type: biochemical; conditions: 40 min; read-out: percentage of enzyme activity that remains
PKBβ(h) = PKBβ(h) (Homo sapiens, UniProt P31751); assay: Upstate kinase activity inhibition assay PKBβ(h); conditions: 40 min, read-out: percentage of enzyme activity that remains
Rsk1(h) = target: T7, Rsk1(h) (Homo sapiens, UniProt Q15418); assay: Upstate kinase activity inhibition assay Rsk1(h); assay type: biochemical; conditions: 40 min; read-out: percentage of enzyme activity that remains
T7 construct: purchased Upstate (KinaseProfiler service)

CK2α2(h) = target: T8, CK2α2(h) (Homo sapiens, UniProt P19784); assay: Upstate kinase activity inhibition assay CK2α2(h); assay type: biochemical; conditions: 40 min; read-out: percentage of enzyme activity that remains
T8 construct: purchased Upstate (KinaseProfiler service)

LIMK1(h) = target: T9, LIMK1(h) (Homo sapiens, UniProt P53667); assay: Upstate kinase activity inhibition assay LIMK1(h); assay type: biochemical; conditions: 40 min; read-out: percentage of enzyme activity that remains
T9 construct: purchased Upstate (KinaseProfiler service)

PKBγ(h) = target: T10, PKBγ(h) (Homo sapiens, UniProt Q9Y243); assay: Upstate kinase activity inhibition assay PKBγ(h); assay type: biochemical; conditions: 40 min; read-out: percentage of enzyme activity that remains
T10 construct: purchased Upstate (KinaseProfiler service)

EphB3(h) = EphB3(h) (Homo sapiens, UniProt P54753); assay: Upstate kinase activity inhibition assay EphB3(h); conditions: 40 min, read-out: percentage of enzyme activity that remains
Ros(h) = target: T11, Ros(h) (Homo sapiens, UniProt P08922); assay: Upstate kinase activity inhibition assay Ros(h); assay type: biochemical; conditions: 40 min; read-out: percentage of enzyme activity that remains
T11 construct: purchased Upstate (KinaseProfiler service)

JNK2α2(h) = JNK2α2(h) (Homo sapiens, UniProt P45984); assay: Upstate kinase activity inhibition assay JNK2α2(h)
NEK2(h) = NEK2(h) (Homo sapiens, UniProt P51955); assay: Upstate kinase activity inhibition assay NEK2(h); conditions: 40 min, read-out: percentage of enzyme activity that remains
MELK(h) = MELK(h) (Homo sapiens, UniProt Q14680); assay: Upstate kinase activity inhibition assay MELK(h); conditions: 40 min, read-out: percentage of enzyme activity that remains
Fms(h) = Fms(h) (Homo sapiens, UniProt P07333); assay: Upstate kinase activity inhibition assay Fms(h); conditions: 40 min, read-out: percentage of enzyme activity that remains
Ret(h) = target: T12, Ret(h) (Homo sapiens, UniProt P07949); assay: Upstate kinase activity inhibition assay Ret(h); assay type: biochemical; conditions: 40 min; read-out: percentage of enzyme activity that remains
T12 construct: purchased Upstate (KinaseProfiler service)

TrkB(h) = TrkB(h) (Homo sapiens, UniProt Q16620); assay: Upstate kinase activity inhibition assay TrkB(h); conditions: 40 min, read-out: percentage of enzyme activity that remains
SGK3(h) = SGK3(h) (Homo sapiens, UniProt Q96BR1); assay: Upstate kinase activity inhibition assay SGK3(h); conditions: 40 min, read-out: percentage of enzyme activity that remains
TSSK2(h) = target: T13, TSSK2(h) (Homo sapiens, UniProt Q96PF2); assay: Upstate kinase activity inhibition assay TSSK2(h); assay type: biochemical; conditions: 40 min; read-out: percentage of enzyme activity that remains
T13 construct: purchased Upstate (KinaseProfiler service)
T13 sequence (Q96PF2 whole entry): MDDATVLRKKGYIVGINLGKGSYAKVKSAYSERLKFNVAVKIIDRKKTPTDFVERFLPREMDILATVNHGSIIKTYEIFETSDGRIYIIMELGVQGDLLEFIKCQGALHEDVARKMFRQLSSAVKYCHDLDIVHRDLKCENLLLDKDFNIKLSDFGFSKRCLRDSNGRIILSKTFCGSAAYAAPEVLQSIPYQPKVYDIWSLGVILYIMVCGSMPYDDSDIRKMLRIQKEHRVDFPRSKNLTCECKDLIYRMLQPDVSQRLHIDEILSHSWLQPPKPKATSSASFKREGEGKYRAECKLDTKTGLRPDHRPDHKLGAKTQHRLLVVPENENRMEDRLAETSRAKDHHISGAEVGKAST

T1 sequence (Q9UM73 19-1620): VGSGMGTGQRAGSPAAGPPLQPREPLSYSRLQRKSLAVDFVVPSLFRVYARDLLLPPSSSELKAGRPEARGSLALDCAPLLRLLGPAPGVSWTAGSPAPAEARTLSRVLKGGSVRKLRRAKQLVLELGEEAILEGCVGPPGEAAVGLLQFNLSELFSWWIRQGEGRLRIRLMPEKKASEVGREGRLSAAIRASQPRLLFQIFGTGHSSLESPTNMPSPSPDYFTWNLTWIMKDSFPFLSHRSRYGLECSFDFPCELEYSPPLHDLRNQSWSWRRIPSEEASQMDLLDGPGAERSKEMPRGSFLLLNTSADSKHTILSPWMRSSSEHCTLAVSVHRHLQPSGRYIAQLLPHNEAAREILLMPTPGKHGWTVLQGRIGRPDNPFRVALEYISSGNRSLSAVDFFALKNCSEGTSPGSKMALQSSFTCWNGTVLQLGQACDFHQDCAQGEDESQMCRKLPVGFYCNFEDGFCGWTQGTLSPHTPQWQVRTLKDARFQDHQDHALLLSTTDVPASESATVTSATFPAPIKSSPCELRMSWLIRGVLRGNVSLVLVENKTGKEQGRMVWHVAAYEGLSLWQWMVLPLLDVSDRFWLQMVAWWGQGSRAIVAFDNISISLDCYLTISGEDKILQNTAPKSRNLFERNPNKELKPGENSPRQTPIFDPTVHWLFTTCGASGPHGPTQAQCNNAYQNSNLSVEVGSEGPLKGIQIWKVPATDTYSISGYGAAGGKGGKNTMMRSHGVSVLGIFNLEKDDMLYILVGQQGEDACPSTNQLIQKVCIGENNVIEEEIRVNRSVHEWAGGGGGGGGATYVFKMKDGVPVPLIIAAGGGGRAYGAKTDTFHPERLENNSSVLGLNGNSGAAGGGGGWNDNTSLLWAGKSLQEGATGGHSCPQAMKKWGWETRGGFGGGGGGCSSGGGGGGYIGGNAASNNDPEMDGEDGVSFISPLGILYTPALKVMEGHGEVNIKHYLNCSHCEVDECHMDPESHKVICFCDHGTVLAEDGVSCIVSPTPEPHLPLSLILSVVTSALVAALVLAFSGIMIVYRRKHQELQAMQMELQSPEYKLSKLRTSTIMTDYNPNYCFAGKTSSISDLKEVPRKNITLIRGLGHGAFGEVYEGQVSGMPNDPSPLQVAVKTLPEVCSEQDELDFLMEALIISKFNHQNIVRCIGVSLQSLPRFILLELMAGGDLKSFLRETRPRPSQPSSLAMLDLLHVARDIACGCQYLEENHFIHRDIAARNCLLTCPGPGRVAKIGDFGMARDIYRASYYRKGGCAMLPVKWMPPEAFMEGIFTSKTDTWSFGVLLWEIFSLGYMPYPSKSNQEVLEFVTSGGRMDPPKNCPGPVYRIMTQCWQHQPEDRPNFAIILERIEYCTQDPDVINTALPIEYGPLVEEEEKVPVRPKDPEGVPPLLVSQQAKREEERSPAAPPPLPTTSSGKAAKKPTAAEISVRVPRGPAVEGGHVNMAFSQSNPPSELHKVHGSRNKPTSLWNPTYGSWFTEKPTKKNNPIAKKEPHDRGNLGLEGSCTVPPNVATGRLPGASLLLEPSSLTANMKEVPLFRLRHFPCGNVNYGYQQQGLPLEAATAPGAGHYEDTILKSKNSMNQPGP
Sequence of JNK2α2(h) (P45984 whole entry): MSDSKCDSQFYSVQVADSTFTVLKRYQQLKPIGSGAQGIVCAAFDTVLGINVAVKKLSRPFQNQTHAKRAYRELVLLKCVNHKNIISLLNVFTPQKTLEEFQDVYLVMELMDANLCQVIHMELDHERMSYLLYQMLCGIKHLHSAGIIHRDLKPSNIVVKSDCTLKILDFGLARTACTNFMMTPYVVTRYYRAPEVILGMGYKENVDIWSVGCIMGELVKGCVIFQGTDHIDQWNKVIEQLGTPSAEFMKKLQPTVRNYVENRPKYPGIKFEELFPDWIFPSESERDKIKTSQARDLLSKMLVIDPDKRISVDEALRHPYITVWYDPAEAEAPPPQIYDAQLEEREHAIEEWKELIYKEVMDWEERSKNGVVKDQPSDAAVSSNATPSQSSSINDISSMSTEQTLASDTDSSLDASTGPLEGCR
Sequence of TrkB(h) (Q16620 32-822): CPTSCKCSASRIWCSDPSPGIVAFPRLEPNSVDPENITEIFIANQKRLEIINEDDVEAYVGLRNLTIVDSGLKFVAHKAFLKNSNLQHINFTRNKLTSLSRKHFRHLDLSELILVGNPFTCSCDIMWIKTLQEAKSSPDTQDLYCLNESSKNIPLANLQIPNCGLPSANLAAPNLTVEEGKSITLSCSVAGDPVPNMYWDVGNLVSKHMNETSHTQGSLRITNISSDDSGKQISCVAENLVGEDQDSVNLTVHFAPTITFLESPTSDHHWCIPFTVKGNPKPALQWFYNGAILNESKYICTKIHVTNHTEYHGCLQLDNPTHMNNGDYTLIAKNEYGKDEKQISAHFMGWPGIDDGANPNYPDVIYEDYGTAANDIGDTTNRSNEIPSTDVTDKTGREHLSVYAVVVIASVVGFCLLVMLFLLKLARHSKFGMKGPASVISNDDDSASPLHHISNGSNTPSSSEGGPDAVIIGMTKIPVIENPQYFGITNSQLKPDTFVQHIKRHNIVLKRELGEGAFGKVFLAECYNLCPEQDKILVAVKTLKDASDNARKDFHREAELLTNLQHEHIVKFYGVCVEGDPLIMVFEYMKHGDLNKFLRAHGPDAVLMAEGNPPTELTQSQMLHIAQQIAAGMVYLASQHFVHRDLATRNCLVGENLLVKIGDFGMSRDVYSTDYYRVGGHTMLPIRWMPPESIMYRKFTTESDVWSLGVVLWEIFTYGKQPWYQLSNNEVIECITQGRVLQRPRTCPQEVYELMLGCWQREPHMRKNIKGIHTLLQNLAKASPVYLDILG
Sequence of SAPK4(h) (O15264 whole entry): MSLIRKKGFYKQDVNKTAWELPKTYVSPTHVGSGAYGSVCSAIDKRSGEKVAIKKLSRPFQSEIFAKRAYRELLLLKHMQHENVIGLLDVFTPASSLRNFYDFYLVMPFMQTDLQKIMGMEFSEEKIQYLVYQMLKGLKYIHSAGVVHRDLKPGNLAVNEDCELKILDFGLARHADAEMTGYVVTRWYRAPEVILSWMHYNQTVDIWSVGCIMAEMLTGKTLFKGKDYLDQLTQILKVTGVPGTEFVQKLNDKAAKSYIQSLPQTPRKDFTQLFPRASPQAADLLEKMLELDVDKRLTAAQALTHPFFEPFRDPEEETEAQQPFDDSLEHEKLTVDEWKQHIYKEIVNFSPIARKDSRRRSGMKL
Sequence of EphB3(h) (P54753 34-998): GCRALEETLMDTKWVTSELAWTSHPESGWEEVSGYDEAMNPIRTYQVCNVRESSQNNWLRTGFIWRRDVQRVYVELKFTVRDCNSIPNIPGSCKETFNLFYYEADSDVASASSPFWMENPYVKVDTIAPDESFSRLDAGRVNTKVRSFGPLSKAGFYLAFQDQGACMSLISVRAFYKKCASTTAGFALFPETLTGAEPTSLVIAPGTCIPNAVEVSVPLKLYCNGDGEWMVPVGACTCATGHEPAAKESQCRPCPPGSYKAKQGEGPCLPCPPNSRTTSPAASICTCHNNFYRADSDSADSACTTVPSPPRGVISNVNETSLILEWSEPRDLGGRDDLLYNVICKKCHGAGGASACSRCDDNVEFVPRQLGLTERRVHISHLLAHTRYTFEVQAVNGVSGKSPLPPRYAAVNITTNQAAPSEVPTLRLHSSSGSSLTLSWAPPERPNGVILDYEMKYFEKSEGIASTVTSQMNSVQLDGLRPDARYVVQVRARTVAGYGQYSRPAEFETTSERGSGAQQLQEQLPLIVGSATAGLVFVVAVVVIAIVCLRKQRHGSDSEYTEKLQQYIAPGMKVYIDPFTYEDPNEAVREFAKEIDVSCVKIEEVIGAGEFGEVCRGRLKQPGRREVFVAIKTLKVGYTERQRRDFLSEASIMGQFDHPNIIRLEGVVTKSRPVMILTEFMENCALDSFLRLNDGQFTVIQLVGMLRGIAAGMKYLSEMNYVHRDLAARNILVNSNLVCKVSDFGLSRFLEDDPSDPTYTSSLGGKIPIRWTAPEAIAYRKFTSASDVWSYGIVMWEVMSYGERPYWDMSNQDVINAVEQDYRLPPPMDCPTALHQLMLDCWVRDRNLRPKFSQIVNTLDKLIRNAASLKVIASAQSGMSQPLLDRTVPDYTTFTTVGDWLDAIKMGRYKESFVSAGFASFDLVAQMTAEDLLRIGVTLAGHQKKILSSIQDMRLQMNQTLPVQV
T10 sequence (Q9Y243 whole entry): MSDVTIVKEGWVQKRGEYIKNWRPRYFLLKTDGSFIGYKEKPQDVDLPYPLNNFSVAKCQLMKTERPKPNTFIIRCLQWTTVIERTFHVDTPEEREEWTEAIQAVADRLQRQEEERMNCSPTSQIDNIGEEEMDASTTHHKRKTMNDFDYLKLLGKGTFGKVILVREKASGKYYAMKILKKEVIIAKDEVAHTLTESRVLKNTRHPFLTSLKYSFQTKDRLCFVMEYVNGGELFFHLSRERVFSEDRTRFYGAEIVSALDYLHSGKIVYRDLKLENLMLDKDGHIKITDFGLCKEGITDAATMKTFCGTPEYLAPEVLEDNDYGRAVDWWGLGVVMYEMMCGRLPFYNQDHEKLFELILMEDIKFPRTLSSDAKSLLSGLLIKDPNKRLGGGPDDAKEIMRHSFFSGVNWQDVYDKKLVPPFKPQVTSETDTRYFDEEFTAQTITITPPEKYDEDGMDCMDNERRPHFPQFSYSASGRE

Cc1cc(Nc2cc(N3CCN(C)CC3)nc(Sc3ccc(NC(=O)C4CC4)cc3)n2)n[nH]1 [Compound E, Cyclopropane carboxylic acid {4-[4-(4-methyl-piperazin-1-yl)-6-(5-methyl-2H-pyrazol-3-ylamino)-pyrimidin-2-ylsulphanyl]-phenyl}-amide]
remaining activity at 0.2 µM (SAPK4(h)): 96% | remaining activity at 4 µM (SAPK4(h)): 92% | remaining activity at 0.2 µM (ALK(h)): 70% | remaining activity at 4 µM (ALK(h)): 58% | remaining activity at 0.2 µM (TSSK1(h)): 122% | remaining activity at 4 µM (TSSK1(h)): 99% | remaining activity at 0.2 µM (PKCβII(h)): 99% | remaining activity at 4 µM (PKCβII(h)): 94% | remaining activity at 0.2 µM (IKKβ(h)): 106% | remaining activity at 4 µM (IKKβ(h)): 117% | remaining activity at 0.2 µM (ZIPK(h)): 100% | percentage of enzyme activity that remains (BTK(h); 0.2 μM Compound E): 93% | percentage of enzyme activity that remains (BTK(h); 4 μM Compound E): 49% | remaining activity at 0.2 µM (PKBα(h)): 110% | remaining activity at 4 µM (PKBα(h)): 110% | remaining activity at 0.2 µM (TrkA(h)): 98% | remaining activity at 4 µM (TrkA(h)): 8% | remaining activity at 0.2 µM (PKCη(h)): 98% | remaining activity at 4 µM (PKCη(h)): 100% | remaining activity at 0.2 µM (PAK6(h)): 92% | remaining activity at 4 µM (PAK6(h)): 92% | percentage of enzyme activity that remains (LOK(h); 0.2 μM Compound E): 92% | percentage of enzyme activity that remains (LOK(h); 4 μM Compound E): 37% | remaining activity at 0.2 µM (MEK1(h)): 115% | remaining activity at 4 µM (MEK1(h)): 82% | percentage of enzyme activity that remains (CDK2/cyclinE(h)): 125% | remaining activity at 0.2 µM (PKA(h)): 100% | remaining activity at 4 µM (PKA(h)): 102% | remaining activity at 0.2 µM (PKBβ(h)): 105% | remaining activity at 4 µM (PKBβ(h)): 85% | remaining activity at 4 µM (Rsk1(h)): 89% | remaining activity at 0.2 µM (CK2α2(h)): 100% | remaining activity at 0.2 µM (LIMK1(h)): 71% | remaining activity at 4 µM (LIMK1(h)): 15% | remaining activity at 0.2 µM (PKBγ(h)): 89% | remaining activity at 4 µM (PKBγ(h)): 83% | remaining activity at 0.2 µM (EphB3(h)): 99% | remaining activity at 4 µM (EphB3(h)): 89% | remaining activity at 4 µM (Ros(h)): 80% | percentage of enzyme activity that remains (JNK2α2(h); 0.2 μM Compound E): 107% | percentage of enzyme activity that remains (JNK2α2(h); 4 μM Compound E): 105% | remaining activity at 0.2 µM (NEK2(h)): 112% | remaining activity at 4 µM (NEK2(h)): 109% | remaining activity at 0.2 µM (MELK(h)): 56% | remaining activity at 4 µM (MELK(h)): 13% | remaining activity at 0.2 µM (Fms(h)): 139% | remaining activity at 4 µM (Fms(h)): 54% | remaining activity at 0.2 µM (Ret(h)): 34% | remaining activity at 4 µM (Ret(h)): 2% | remaining activity at 0.2 µM (TrkB(h)): 71% | remaining activity at 4 µM (TrkB(h)): 1% | remaining activity at 0.2 µM (SGK3(h)): 103% | remaining activity at 4 µM (SGK3(h)): 87% | remaining activity at 0.2 µM (TSSK2(h)): 0% | remaining activity at 4 µM (TSSK2(h)): 0%
